Positions count from the first letter of the chain named. Where two headings read alike, the source gives them in different places.
How the values were obtained:
[1] = target: T1, rabbit derived excitatory amino acid carrier (Oryctolagus cuniculus, UniProt P31597); experiment: inhibition of current evoked by L-glutamate in oocytes expressing rabbit EAAC1; format: cell-based
T1 construct: ID No. 4; expressed in transfected cells; host or cells: Xenopus laevis oocytes injected with cRNA (25 ng/oocyte)
T1 sequence (P31597 1-524): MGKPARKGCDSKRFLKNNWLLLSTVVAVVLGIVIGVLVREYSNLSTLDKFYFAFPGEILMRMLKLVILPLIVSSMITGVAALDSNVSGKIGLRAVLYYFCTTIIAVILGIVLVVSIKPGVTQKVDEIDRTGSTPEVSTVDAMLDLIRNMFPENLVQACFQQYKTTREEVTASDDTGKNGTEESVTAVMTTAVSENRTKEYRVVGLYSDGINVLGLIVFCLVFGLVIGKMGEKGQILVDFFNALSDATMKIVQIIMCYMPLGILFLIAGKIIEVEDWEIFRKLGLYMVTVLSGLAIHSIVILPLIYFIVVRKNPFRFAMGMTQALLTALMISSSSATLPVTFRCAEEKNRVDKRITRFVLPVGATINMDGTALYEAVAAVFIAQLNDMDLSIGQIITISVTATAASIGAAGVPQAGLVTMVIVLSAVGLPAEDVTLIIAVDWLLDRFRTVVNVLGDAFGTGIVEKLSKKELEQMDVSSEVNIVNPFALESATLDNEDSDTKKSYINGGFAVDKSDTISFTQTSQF
Protocol: (§1) Xenopus laevis oocytes were injected with cRNA (25 ng/oocyte) encoding for the excitatory amino acid carrier protein derived from rabbit as described in Example 1. Electrophysiological measurements were performed 3-4 days after injection using a conventional two-microelectrode voltage clamp method (Axoclamp-2A, Axon Instruments, CA).
The standard bath solution (ND 96) contained 96 mM NaCl, 2 mM KCl, 1.8 mM CaCl2, 1.0 mM MgCl2 and 5 mM HEPES pH 7.4 The recording chamber was perfused with bath solution. Current responses of Xenopus laevis oocytes injected with cRNA coding for the excitatory amino acid carrier protein and fragments thereof to bath applied 100 μM substrates are illustrated in FIG. 7.
Example 7 illustrates the application of the electrophysiological features of the excitatory amino acid carrier protein, derived from rabbit, described in Example 6 in the screening of drugs to enhance or inhibit the protein. The Xenopus laevis oocytes was injected with rabbit derived excitatory amino acid carrier cRNA and processed as described in Example 6. […] Robinson, M. B., Hunter-Ensor, M. & Sinor, J., "Pharmacologically distinct sodium-dependentL-[3H]glutamate transport process in rat brain," Brain Research 544:196-202 (1991).

[2] = target: T2, Human High Affinity Glutamate Transporter HEAAC1 (Homo sapiens, UniProt P43005); experiment: substrate-evoked currents in oocytes expressing human carrier; conditions: for inward currents induced: AAD at 50 μM, DHK up to 1 mM
T2 sequence (P43005 1-524 V96L/K170N/P172A/L260H): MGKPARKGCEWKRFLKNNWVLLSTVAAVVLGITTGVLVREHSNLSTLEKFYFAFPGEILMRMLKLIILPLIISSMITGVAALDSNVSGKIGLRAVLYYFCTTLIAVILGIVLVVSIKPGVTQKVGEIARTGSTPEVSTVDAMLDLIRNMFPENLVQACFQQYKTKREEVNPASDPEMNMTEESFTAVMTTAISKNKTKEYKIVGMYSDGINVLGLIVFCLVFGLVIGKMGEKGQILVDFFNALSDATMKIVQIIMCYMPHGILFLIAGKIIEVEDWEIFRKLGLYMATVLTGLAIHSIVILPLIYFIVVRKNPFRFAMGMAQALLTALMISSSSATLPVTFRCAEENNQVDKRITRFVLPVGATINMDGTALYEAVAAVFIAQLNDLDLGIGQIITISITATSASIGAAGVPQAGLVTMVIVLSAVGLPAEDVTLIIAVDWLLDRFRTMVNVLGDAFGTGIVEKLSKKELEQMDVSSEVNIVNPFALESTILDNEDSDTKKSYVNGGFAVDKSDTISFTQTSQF
From the text: (§2) The glutamate evoked currents were first measured without addition of inhibitor. […] Calculation of KI values was based on the kinetics for competitive inhibition.
Oocytes were used for two-microelectrode voltage-clamping as described above and command potentials were applied and controlled by an IBM-compatible computer via the software CLAMPEX from pCLAMP (version 5.5 Axon Instruments, CA). The oocyte membrane was held at -50 mV and pulsed to the test potential for […] followed by a 1 sec interpulse interval at the holding potential of -50 mV before application of the next pulse. Current was low-pass filtered at […], digitized at 200 μsec and saver on the computer. Steady-state currents were obtained by averaging the current between 72 and 76 msec.

[3] = tested on: synaptosomal L-glutamate uptake; conditions: Robinson et al. / previously known; cited from earlier work
[4] = target: T2, Human High Affinity Glutamate Transporter HEAAC1; experiment: inhibition of L-glutamate-evoked currents in oocytes expressing human carrier; format: cell-based; design: expressed in transfected cells; host or cells: Xenopus laevis oocytes (cRNA injection; human kidney clone K-3); conditions: for IC50 / Ki: HEAAC1; for inhibition of the current induced by L-glutamate: L-glutamate 10-1,000 μM, DHK 1 mM; for order of sensitivity to inhibitors based on IC50 values: current induced by 100 μM L-glutamate; for Ki: based on the kinetics for competitive inhibition
From the text: as §2

[5] = target: T3, excitatory amino acid carrier protein (EAAC1) derived from rabbit (Oryctolagus cuniculus, UniProt P31597); experiment: uptake of 14C-L-glutamate or 14C-L-aspartate by Xenopus oocytes injected with rabbit EAAC1 cRNA; format: cell-based; conditions: carrier protein of Seq. ID No. 4
T3 sequence (P31597 1-524): T1 sequence (P31597 1-524)
Protocol: Poly(A)^+ RNA was isolated and injected into collagenase-treated and manually-defolliculated Xenopus laevis oocytes.
All uptakes in this and the following figures were performed with 6-8 oocytes, 3 days after injection. […] For the sodium-free medium, sodium chloride was replaced by Choline-chloride. RNA-injected oocytes were injected with 25 ng cRNA in 50 nl.
The solutions described above were modified to the extent that acetate ion was substituted for chloride ion.

[6] = tested on: excitatory amino acid carrier protein derived from rabbit; experiment: effect of external K+ on current evoked by L-glutamate; format: cell-based; conditions: 50 μM L-glutamate, 0-50 mM K+, -30 mV, FIG. 10
Protocol: as §1
The bath medium were prepared containing potassium ion concentrations in concentrations ranging from 0 mM-50 mM. The bath media were held at a holding potential of -30 mV, and normalized to the current measured on the same oocyte (the value at 0 mM K^+ is 100%). Consecutive current measurements were made on single oocytes after changing to bath medium containing the appropriate K^+ concentration. […] The bath medium contained z mM KCl (where z=0-50), 50-z mM choline Cl, 50 mM NaCl, 1.8 mM CaCl2, 1.0 mM MgCl2, 10 mM BaCl2, 5 mM HEPES pH 7.4.

[7] = target: T4, human excitatory amino acid carrier (Homo sapiens, UniProt P43005); experiment: voltage dependence of currents mediated by human carrier; format: cell-based
T4 sequence (P43005 1-524): T2 sequence (P43005 1-524 V96L/K170N/P172A/L260H) with L96V, N170K, A172P, H260L
From the text: (§3) Oocytes were used for two-microelectrode voltage-clamping as described above and command potentials were applied and controlled by an IBM-compatible computer via the software CLAMPEX from pCLAMP (version 5.5 Axon Instruments, CA). The oocyte membrane was held at -50 mV and pulsed to the test potential for msec followed by a 1 sec interpulse interval at the holding potential of -50 mV before application of the next pulse. Current was low-pass filtered at 50 kHz, digitized at 200 μsec and saver on the computer. Steady-state currents were obtained by averaging the current between 72 and 76 msec.

[8] = target: T3, excitatory amino acid carrier protein (EAAC1) derived from rabbit; experiment: substrate-evoked currents (two-microelectrode voltage clamp) in oocytes expressing rabbit EAAC1; conditions: 100 μM substrate, -60 mV holding potential, FIG. 7
Protocol: (§4) The membrane current was measured in standard bath solution (ND 96) at -60 mV holding potential. Substrates were applied at the bars.
(§5) FIG. 9 graphically depicts the changes in glutamate induced current measured in nanoampere (nA) at concentrations ranging from 1 μM to 1 mM glutamate. The results were fitted to a Michaelis-Menton curve. An Eadie-Hofstee plot is depicted in the inset.
(§6) Xenopus laevis oocytes were injected with excitatory amino acid carrier cRNA derived from rabbit (25 ng/oocyte) and used for two microelectrode voltage clamp experiments. Recordings were performed at -60 mV in regular ND 96 saline (96 mM NaCl, 2 mM KCl, 1.8 mM CaCl2, 1.0 mM MgCl2 and 5 mM Hepes pH 7.4).

[9] = substrate: N[C@@H](CC(=O)O)C(=O)O; experiment: cells, lysate or membranes; conditions: other: EAAC1, rabbit derived; pH 7.4
Protocol: as §4, §5, §6

[10] = substrate: N[C@@H](CCC(=O)O)C(=O)O; experiment: cells, lysate or membranes; conditions: pH 7.4
[11] = substrate: N[C@H](CC(=O)O)C(=O)O; experiment: cells, lysate or membranes; conditions: other: EAAC1, rabbit derived; pH 7.4
Protocol: as §4, §5, §6

[12] = substrate: N[C@@H](CCCC(=O)O)C(=O)O; experiment: cells, lysate or membranes; conditions: other: HEAAC1, human
[13] = substrate: N[C@H](C(=O)O)[C@H](O)C(=O)O; experiment: cells, lysate or membranes; conditions: other: HEAAC1, human
From the text: as §3

[14] = substrate: O=C(O)[C@H]1CN[C@H](C(=O)O)C1; experiment: cells, lysate or membranes; conditions: other: HEAAC1, human
From the text: as §3

[15] = IC50, L-Glu = 100 um, L-Glu = 100 um

N[C@H](C(=O)O)[C@H](O)C(=O)O (relative stereo) [THA, DL-threo-β-hydroxyaspartate]
IC50 [1]: 0.0071 mM | substrate of the carrier / effect on transport [2]: transport substrates | inward currents induced [2]: large inward currents | inhibition of synaptosomal L-glutamate uptake [3]: strong inhibitor | IC50 [4, 15]: 28 ± 0.8 µM | inhibition of the current induced by L-glutamate [4]: potent inhibitors | order of sensitivity to inhibitors based on IC50 values [4]: THA>PDC>>AAA>DHK

N[C@@H](CCCC(=O)O)C(=O)O [AAD, L-α-aminoadipate]
IC50 [1]: 0.165 mM | Ki [4]: ~20 µM | order of sensitivity to inhibitors based on IC50 values [4]: THA>PDC>>AAA>DHK

CC(C)[C@H]1CN[C@H](C(=O)O)[C@H]1CC(=O)O [DHK, dihydrokainate]
IC50 ([1]; rabbit EAAC1, value in mM, read-out: IC50, inhibition of glutamate induced inward currents): > 1 mM | inward currents induced [2]: did not induce significant currents | inhibition of synaptosomal L-glutamate uptake [3]: less effective inhibitors | inhibition of the current induced by L-glutamate [4]: did not inhibit the current efficiently | order of sensitivity to inhibitors based on IC50 values [4]: THA>PDC>>AAA>DHK | inhibition at 1000 µM ([4]; read-out: inhibition at 1 mM DHK (IC50)): 6.7%

NC(=O)CC[C@H](N)C(=O)O [Glutamine]
activity for glutamine transport [5]: slight activity

[K+] [K^+, potassium ion]
inhibition of L-glutamate evoked current by external K+ [6]: greater degree of inhibition of current at higher K^+ concentration

N[C@@H](CCC(=O)O)C(=O)O [L-glutamate]
voltage dependence of Km for L-glutamate [7]: strongly depended on membrane voltage

O=C(O)[C@H]1CN[C@H](C(=O)O)C1 [PDC, L-trans-pyrolidine-2,4-dicarboxylate]
substrate of the carrier / effect on transport [2]: transport substrates | inward currents induced [2]: large inward currents | Vmax for the PDC-induced current [7]: markedly reduced | overall voltage-dependencies of L-glutamate and PDC evoked currents [7]: identical | Ki [4]: ~1 µM | IC50 ([4]; IC50, L-Glu = 1 mM, L-Glu = 1 mM): 91 ± 7.2 µM | IC50 [4, 15]: 74 ± 11 µM | inhibition of the current induced by L-glutamate [4]: potent inhibitors | order of sensitivity to inhibitors based on IC50 values [4]: THA>PDC>>AAA>DHK | maximal transport rate (Vmax) of glutamate uptake ([4]; human carrier): reduces the maximal transport rate (Vmax) | preference as uptake inhibitor ([4]; human carrier): preferred uptake inhibitor

N[C@@H](Cn1oc(=O)[nH]c1=O)C(=O)O [Quisgualate, quisgualate]
amplitude of inward current evoked by substrate [8]: small but significant inward current

C=C(C)[C@H]1CN[C@H](C(=O)O)[C@H]1CC(=O)O [kainate]
amplitude of inward current evoked by substrate [8]: did not induce current

B1: excitatory amino acid carrier protein (EAAC1) derived from rabbit (Oryctolagus cuniculus) (protein)
chain: T1 sequence (P31597 1-524)
Km [9]: 6.5 µM | Km ([10]; other: EAAC1, rabbit derived): 12.1 µM | Km ([10]; other: glutamate-induced current, rabbit EAAC1 in oocytes): 12.2 µM | Km [11]: 7.5 µM

B2: Human High Affinity Glutamate Transporter HEAAC1 (Homo sapiens) (protein)
chain: T2 sequence (P43005 1-524 V96L/K170N/P172A/L260H)
Km [12]: 2400 ± 0.6 µM | Km [13]: 34 ± 6.4 µM | Km [14]: 23 ± 3.7 µM
